Columns and labels:
Drosophila melanogaster = assay: Motor activity (negative geotropic response) test in flies: rutin vs imidacloprid; format: in vivo
Procedure: Standard methods were relied on to test motor activity and motor impairments in Drosophila melanogaster (Jimenez-Del-Rio et al. 2010. Neurochem Res 35:227-238). The method relies on the negative geotropic response (i.e. preference to walk up when standing on a wall) of insects. Four-day-old (post eclosion) D. melanogaster females were randomly assigned to one of four treatments: Control (fed on 5% sugar-water), Rutin 0.1 (fed on a solution 0.1 μM rutin in 5% sugar-water), Rutin 1 (fed on a solution 1 μM rutin in 5% sugar-water), Rutin 10 (fed on a solution 10 uM rutin in 5% sugar-water). After three days flies from each group were randomly assigned to one of two treatments: 5% sugar-water or 0.1 μM imid in 5% sugar-water. Thus, flies were in one of eight treatments: Control, Imid, Rut 0.1, Rut 0.1+Imid, Rut 1, Rut 1+Imid, Rut 10, Rut 10+Imid. Flies were exposed to their specific treatment for 22 h.
Following standard methods, flies were transferred to a clean vial and a threshold of 5 cm from the bottom was set on the vial. The bottom of the vial was knocked on the table to assure all flies were moved to the bottom. The number of flies that crossed the threshold within 6 seconds were counted. Data were analyzed using a Chi-square with specific predictions (one-tail tests) for planned comparisons. Error associated with multiple comparisons was corrected using the False Discovery Rate-method (two stage sharpen method).

[1] = tested on: Honey bee foragers (Apis mellifera scutellata); assay: Sucrose responsiveness (sensory sensitivity) of honey bees: flavonoids vs deltamethrin; format: in vivo; details: honey bees; rutin 1 μM, kaempferol 131.7 μM or both for one day; 17.81 μM deltamethrin next day; pooled score
Procedure: Honey bee foragers (Apis mellifera scutellata) were captured from established hives at the Apiary of the Universidad del Rosario (Bogota, Colombia) between 08:00 h and 10:00 h. Bees were ice-anesthetized and harnessed in plastic tubes and maintained under laboratory conditions for the duration of the experiment (three days).
On the first day, bees were randomly allocated to one of four treatments administered as two doses (morning: 20 μL; afternoon:10 μL): i) Control (1M sucrose solution), ii) Rutin 1 μM (Sigma-Aldrich R5143), iii) Kaempferol 131.7 μM (Sigma-Aldrich K0133), iv) Rutin-Kaempferol composition (final concentration of […] rutin and 131.7 μM kaempferol). All solutions were diluted in 1M sucrose solution to the concentrations described above. The next day, bees from each group were randomly assigned to one of two treatments: […] of 1M sucrose solution or 17.81 μM deltamethrin (Dinastia Bayer). Thus, bees belonged to one of eight treatments: i) Sucrose water (Control), ii) Rutin (Rut), iii) Kaempferol (Kaemp), iv) Kaempferol+Rutin (Kaemp+Rut), v) Deltamethrin (Delta), vi) Rutin+Deltamethrin (Rut+Delta), vii) Kaempferol+Deltamethrin (Kaemp+Delta), viii) Kaempferol+Rutin+Deltamethrin ((Kaemp+Rut)+Delta). All solutions were diluted in 1M sugar water to the concentrations described above.
Sensory sensitivity was evaluated using responsiveness to sucrose, a proxy of resource exploitation by foragers. On the second day, bees of the eight treatments described above were tested five times for their response threshold (0 h, 1 h, 2 h, 3 h and 4 h). The first measure (0 h) was done prior to pesticide administration. Bees were tested with an ascending sucrose concentration of 0.1, 0.3, 1, 3, 10 and 30% (w/w). Between each concentration, the bees were presented with pure water as a control for potential sensitization or habituation (Pankiw et al., Behav Ecol Sociobiol (2000) 47:265-267). The inter-trial time between the presentation of each sucrose concentration was at least 4 minutes. For each presentation, the reflexive extension of the proboscis (tongue) of the bee, after antennal stimulation with the solution was recorded. After the last measure (4 h), bees were fed with 10 μL of 1M sucrose solution and maintained until the next day for a final test (24 hours after pesticide administration).
For each bee, a responsiveness score was determined (0-7) 0 h, 1 h, 2 h, 3 h, 4 h and 24 h, and a pooled scored (0-42). Normal distribution of the scores was tested using Shapiro-Wilk W Test for the null hypothesis that data is from a Normal distribution. […] Thus, non-parametric tests were used for comparisons across treatments and for multiple comparisons. Overall changes of responses across different concentrations were evaluated using repeated-measured MANOVA. Error associated with multiple comparisons was controlled using the Two-stage sharpened False Discovery Rate, and corrected p-values (q-values) are presented. Data were explored for outliers using a single run of Robust Fit outliers test. All analyses were conducted using JMP v.14 (SAS Institute Inc.)

| SMILES | motor performance relative to flies in the control group (Drosophila melanogaster; 0.1 μM imid in 5% sugar-water for 22 h, flies crossing 5 cm threshold within 6 seconds) | motor performance relative to flies prophylactically receiving 0.1 μM rutin (Drosophila melanogaster; comparator rutin 0.1 μM then imid) | motor performance relative to flies prophylactically receiving 1 NM rutin (Drosophila melanogaster; comparator rutin 1 μM then imid) | motor performance relative to flies prophylactically receiving 10 μM rutin (Drosophila melanogaster; comparator rutin 10 μM then imid) | protection against imidacloprid neuromotor impairment (Drosophila melanogaster; flies fed rutin 0.1, 1 or 10 μM for three days before 0.1 μM imid) | sensitivity (sucrose responsiveness, total PER score) relative to Control bees [1] |
| --- | --- | --- | --- | --- | --- | --- |
| O=[N+]([O-])NC1=NCCN1Cc1ccc(Cl)nc1 [Imidacloprid] | lower performance | significantly lower | significantly lower | significantly lower |  |  |
| C[C@@H]1O[C@@H](OC[C@H]2O[C@@H](Oc3c(-c4ccc(O)c(O)c4)oc4cc(O)cc(O)c4c3=O)[C@H](O)[C@@H](O)[C@@H]2O)[C@H](O)[C@H](O)[C@H]1O [Rutin] |  |  |  |  | protected against this impairment | not significantly affected |

Source: patent US20220339178A1, “COMPOSITIONS AND METHODS FOR COGNITIVE PROTECTION OF POLLINATORS AGAINST PESTICIDES” (priority 2019, published 2022)
